Test results as given in patent US11352352B2, “Aminopyrimidine compound, preparation method therefor and use thereof” (BEIJING ADAMADLE BIOTECHNOLOGY LIMITED LIABILITY COMPANY, priority 2017, dated 2022).
pIC50: −log10 of the molar value.

Tests used:
Experiment in all cases: Cell proliferation inhibition experiment, CellTiter-Glo (CTG) method
Assay type in all cases: cell-based
[1] = test system: A-431; settings: Homo sapiens, A-431, 72 h, A-431 cells, 3 days
Method in brief: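 Cells seeded overnight at 37 °C, 5% CO2, then treated with nine 3-fold dilutions in triplicate, top 30 μM for A-431 and 1.111 μM for NCI-H1975 and PC-9; solvent control. After 3 days, viability read by CellTiter-Glo luminescence; IC50 from non-linear sigmoidal fit of survival rate.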

[2] = test system: PC-9; settings: Homo sapiens, PC-9, 72 h, PC-9 cells, 3 days
Method in brief: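 Cells in log-phase growth (viability above 90% by trypan blue) were seeded at 90 μL per well in black-walled, clear-bottom 96-well plates and incubated overnight at 37° C., 5% CO2. A T0 plate was read the next day. Test compounds were added at nine concentrations in triplicate with a solvent control. Viability was measured by CellTiter-Glo luminescence on EnVision, and IC50 came from non-linear S-curve fitting in GraphPad Prism 5.0.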

[3] = test system: NCI-H1975; settings: for pIC50: Homo sapiens, NCI-H1975, 72 h, NCI-H1975 cells, CTG, 3 days; for A-431/NCI-H1975 Selectivity: ratio of A-431 IC50 to NCI-H1975 IC50
Method in brief: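 NCI-H1975 cells with viability above 90% by trypan blue were seeded at 90 μL per well in black 96-well plates and incubated overnight at 37° C., 5% CO2. Compounds were added at nine concentrations in triplicate, and viability was measured with CellTiter-Glo luminescence on EnVision. IC50 came from non-linear S-curve fitting in GraphPad Prism 5.0.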

Row | Structure (SMILES) | pIC50 [1] | pIC50 [2] | pIC50 [3] | A-431/NCI-H1975 Selectivity [3]
1 | C=CC(=O)Nc1cc(Nc2cc(-c3ccc4cnn(C)c4c3)ncn2)c(OC(F)F)cc1N1CCC(N(CC)CC)CC1 [compound 167] | 5.98 | 7.77 | 7.78 | –
2 | C=CC(=O)Nc1cc(Nc2cc(-c3ccc4cnn(C)c4c3)ncn2)c(OC(F)F)cc1OCCN(C)C [compound 170] | 5.78 | 7.55 | 7.43 | 44.1
3 | C=CC(=O)Nc1cc(Nc2cc(-c3ccc4cnn(C)c4c3)ncn2)c(OC(F)F)cc1N1CCC(N(C)C)CC1 [compound 174] | 5.88 | 7.81 | 7.63 | 56.4
4 | C=CC(=O)Nc1cc(Nc2nccc(-c3ccc4cnn(C)c4c3)n2)c(OC(F)F)cc1N(C)CCN(C)C [compound 177] | 5.83 | 7.63 | 7.72 | 77.3
5 | C=CC(=O)Nc1cc(Nc2cc(-c3ccc4cnn(C)c4c3)ncn2)c(OC(F)F)cc1N1CCN(CCN(C)C)CC1 [compound 182] | 5.76 | 7.25 | 7.27 | 32.6
6 | C=CC(=O)Nc1cc(Nc2cc(-c3ccc4cnn(C)c4c3)ncn2)c(OC(F)F)cc1N(C)CCN(CC)CC [compound 183] | 6.01 | 7.16 | 7.39 | 24.4
7 | C=CC(=O)Nc1cc(Nc2cc(-c3ccc4c(cnn4C)c3)ncn2)c(OC)cc1OCCN(C)C(C)C [compound 186] | 5.59 | 7.30 | 7.12 | 33.7
8 | C=CC(=O)Nc1cc(Nc2cc(-c3ccc4c(cnn4C)c3)ncn2)c(OC(F)F)cc1OCCN(C)C(C)C [compound 187] | 5.62 | 7.33 | 7.28 | 45.4

Further molecules by rising pIC50 [1], results first:

Row | pIC50 [1] | pIC50 [2] | pIC50 [3] | Structure (SMILES) | A-431/NCI-H1975 Selectivity [3]
9 | 5.58 | 7.39 | 7.30 | C=CC(=O)Nc1cc(Nc2cc(-c3ccc4cnn(C)c4c3)ncn2)c(OC(F)F)cc1N(C)C1CCN(C)C1 (stereo not drawn) [compound 165] | 53.0
10 | 5.69 | 7.36 | 7.27 | C=CC(=O)Nc1cc(Nc2cc(-c3ccc4c(cnn4C)c3)ncn2)c(OC(F)F)cc1OCCN1CCN(C)CC1 [compound 185] | 37.8
11 | 5.70 | 7.46 | 7.37 | C=CC(=O)Nc1c(OCCN(C)C)cc(OC)c(Nc2cc(-c3ccc4c(cnn4C)c3)ncn2)c1F [compound 178] | 46.7
12 | 5.77 | 7.67 | 7.34 | C=CC(=O)Nc1cc(Nc2cc(-c3ccc4cnn(C)c4c3)ncn2)c(OC(F)F)cc1NCCN(C)C [compound 181] | 36.7
13 | 5.78 | 7.94 | 7.46 | C=CC(=O)Nc1cc(Nc2cc(-c3ccc4cnn(C)c4c3)ncn2)c(OC)cc1OCCN(C)C [compound 169] | 47.9
14 | 5.98 | 7.49 | 7.31 | C=CC(=O)Nc1cc(Nc2cc(-c3ccc4cnn(C)c4c3)ncn2)c(OC)cc1N1CCN(C2CCN(C)CC2)CC1 [compound 184] | 21.3
15 | 6.01 | 8.05 | 7.80 | C=CC(=O)Nc1cc(Nc2cc(-c3ccc4cnn(C)c4c3)ncn2)c(OC)cc1N1CCC(N(CC)CC)CC1 [compound 166] | –
16 | 6.10 | 7.59 | 8.09 | C=CC(=O)Nc1cc(Nc2cc(-c3ccc4c(cnn4C)c3)ncn2)c(OC(F)F)cc1N1CCC(N(C)C)CC1 [compound 175] | 98.0
17 | 6.13 | 7.42 | 7.58 | C=CC(=O)Nc1cc(Nc2cc(-c3ccc4c(cnn4C)c3)ncn2)c(OC(F)F)cc1OCCN(C)C [compound 171] | 28.4
